# Test results reported in patent US20240041877A1, “DOSAGE REGIME AND METHOD FOR TREATING PULMONARY ARTERIAL HYPERTENSION” (Altavant Sciences GmbH, priority 2019, published 2024).
# Columns and labels:
# [1] = system: serum 5-HT; test: Part 2 (MAD) biomarker: serum 5-HT change from Day 1 predose; type: in vivo, human
# Description: (§1) Biomarkers were to be evaluated in Part 2 by measuring concentrations of serotonin (5-hydroxytryptamine [5-HT]) in serum and 5-hydroxyindoleacetic acid (5-HIAA) in plasma and urine. As well, the relationship of biomarkers to PK parameters was to be evaluated.
# (§2) The biomarker analysis was to be based on the Biomarker Population (all subjects with evaluable biomarker measurements at baseline [Day 1 predose] and at least one after dosing [Day 7 or Day 14]).
# (§3) Biomarker data were to be collected only in Part 2. The following biomarkers were to be analyzed: • Serum 5-HT • Plasma 5-HIAA • Urine 5-HIAA/24 hours (as measured, adjusted, estimated, and per gram creatinine)
# (§4) Summary statistics (mean, standard deviation [SD], median, minimum [Min], and maximum [Max]) were to be tabulated for each biomarker, by Cohort, with absolute and relative (%) changes from Day 1 predose.
# (§5) The values were to be tabulated with P values testing whether the difference of changes was equal to 0.
# (§6) The biomarker portion of the study was conducted in Part 2 MAD using the Biomarker Population. The biomarkers evaluated were serum 5-HT and plasma 5-HIAA, as well as urine 5-HIAA/24 hours (as measured, adjusted, estimated, and per gram creatinine). Urinary 5-HIAA was determined by a validated (21 C.F.R. 58, GLP-compliant) method using liquid chromatographic separation and tandem mass spectrometry detection.
# [2] = system: urine 5-HIAA (a PD marker of 5-HT synthesis); test: Part 2 (MAD) biomarker: urine 5-HIAA/24 hours (measured, adjusted, estimated, per gram creatinine); type: in vivo, human; conditions: for Measured urine 5-HIAA: mean difference of % change from Day 1 between KAR5585 and placebo / Measured urine 5-HIAA: mean difference of absolute change from Day 1 between KAR5585 and placebo: no creatinine adjustment
# Description: as §1, §2, §3, §4, §5, §6
# Urine 5 HIAA/24 hour was analyzed in 4 different manners: as measured in the 24-hour collection and (in order to correct for any collection errors) adjusted for creatinine excretion, estimated by the expected creatinine excretion for the subject (as defined in and expressed per gram creatinine. Results were similar for each of the 4 manners and are presented in this report for measured urine. Tables and figures for adjusted, estimated, and per-gram creatinine results are presented in Section 14.
# [3] = clinical; conditions: human
# Description: Food effect was to be evaluated in Part 1, Period 2.
# Pharmacokinetic data were to be summarized descriptively.
# [4] = all doses pooled, predose Day 7
# [5] = all doses pooled, predose Day 14
smiles,measurement,setting,value
"CCOC(=O)[C@@H]1CC2(CCN(c3cc(O[C@H](c4ccc(Cl)cc4-c4ccccc4)C(F)(F)F)nc(N)n3)CC2)CN1 [KAR5585, (S)-ethyl 8-(2-amino-6-((R)-1-(5-chloro-[1,1′-biphenyl]-2-yl)-2,2,2-trifluoroethoxy)pyrimidin-4-yl)-2,8-diazaspiro[4.5]decane-3-carboxylate]",Serum 5-HT: mean difference of absolute change from Day 1 between KAR5585 and placebo,"[1]; 400 mg fed, predose Day 7",16.47 ng/mL
same,Serum 5-HT: mean difference of % change from Day 1 between KAR5585 and placebo,"[1]; 400 mg fed, predose Day 14",−50.02%
same,Serum 5-HT: mean difference of absolute change from Day 1 between KAR5585 and placebo,"[1]; 400 mg fed, predose Day 14",-84.50 ng/mL
same,"mean difference vs placebo of percent changes from Day 1 in serum 5-HT concentration, significance",[1]; Day 7,statistically significant compared to placebo on Day 7 in favor of the 200 mg fed dose group
same,Serum 5-HT: mean difference of % change from Day 1 between KAR5585 and placebo,[1]; [4],−10.39%
same,Serum 5-HT: mean difference of absolute change from Day 1 between KAR5585 and placebo,[1]; [4],-10.19 ng/mL
same,Serum 5-HT: mean difference of % change from Day 1 between KAR5585 and placebo,[1]; [5],−20.26%
same,Serum 5-HT: mean difference of absolute change from Day 1 between KAR5585 and placebo,[1]; [5],-27.14 ng/mL
same,Measured urine 5-HIAA: mean difference of % change from Day 1 between KAR5585 and placebo,"[2]; 100 mg fasting, Day 7",−31.97%
same,Measured urine 5-HIAA: mean difference of absolute change from Day 1 between KAR5585 and placebo,"[2]; 100 mg fasting, Day 7",−0.92 mg/24 hours
same,Measured urine 5-HIAA: mean difference of % change from Day 1 between KAR5585 and placebo,"[2]; 100 mg fasting, Day 14",−17.65%
same,Measured urine 5-HIAA: mean difference of absolute change from Day 1 between KAR5585 and placebo,"[2]; 100 mg fasting, Day 14",−0.91 mg/24 hours
same,Measured urine 5-HIAA: mean difference of % change from Day 1 between KAR5585 and placebo,"[2]; 100 mg fed, Day 7",−50.34%
same,Measured urine 5-HIAA: mean difference of absolute change from Day 1 between KAR5585 and placebo,"[2]; 100 mg fed, Day 7",−2.09 mg/24 hours
same,Measured urine 5-HIAA: mean difference of % change from Day 1 between KAR5585 and placebo,"[2]; 100 mg fed, Day 14",−36.03%
same,Measured urine 5-HIAA: mean difference of absolute change from Day 1 between KAR5585 and placebo,"[2]; 100 mg fed, Day 14",−1.65 mg/24 hours
same,Measured urine 5-HIAA: mean difference of % change from Day 1 between KAR5585 and placebo,"[2]; 200 mg fed, Day 7",−26.95%
same,Measured urine 5-HIAA: mean difference of absolute change from Day 1 between KAR5585 and placebo,"[2]; 200 mg fed, Day 7",−0.92 mg/24 hours
same,Measured urine 5-HIAA: mean difference of % change from Day 1 between KAR5585 and placebo,"[2]; 200 mg fed, Day 14",−37.11%
same,Measured urine 5-HIAA: mean difference of absolute change from Day 1 between KAR5585 and placebo,"[2]; 200 mg fed, Day 14",−1.58 mg/24 hours
same,Measured urine 5-HIAA: mean difference of % change from Day 1 between KAR5585 and placebo,"[2]; 400 mg fed, Day 7",−49.41%
same,Measured urine 5-HIAA: mean difference of absolute change from Day 1 between KAR5585 and placebo,"[2]; 400 mg fed, Day 7",−1.68 mg/24 hours
same,Measured urine 5-HIAA: mean difference of % change from Day 1 between KAR5585 and placebo,"[2]; 400 mg fed, Day 14",−54.82%
same,Measured urine 5-HIAA: mean difference of absolute change from Day 1 between KAR5585 and placebo,"[2]; 400 mg fed, Day 14",−2.04 mg/24 hours
same,"absolute and percent changes from Day 1 in creatinine-normalized urine 5-HIAA vs placebo, significance",[2]; Days 7 and 14,statistically significant in favor of KAR5585 versus placebo in all dose groups
same,mean percent change in measured urine 5-HIAA from Day 1 to Day 7,"[2]; KAR5585 400 mg BID, fed",−39.97%
same,mean percent change in measured urine 5-HIAA from Day 1 to Day 14,"[2]; KAR5585 400 mg BID, fed, listed as KAR5575",−50.85%
same,Measured urine 5-HIAA: mean difference of % change from Day 1 between KAR5585 and placebo,"[2]; all doses pooled, Day 7",−40.03%
same,Measured urine 5-HIAA: mean difference of absolute change from Day 1 between KAR5585 and placebo,"[2]; all doses pooled, Day 7",−1.42 mg/24 hours
same,Measured urine 5-HIAA: mean difference of % change from Day 1 between KAR5585 and placebo,"[2]; all doses pooled, Day 14",−36.39%
same,Measured urine 5-HIAA: mean difference of absolute change from Day 1 between KAR5585 and placebo,"[2]; all doses pooled, Day 14",−1.54 mg/24 hours
same,half-life,"[3]; in vivo, 400 mg",3.14 h
same,Cmax,"[3]; in vivo, 400 mg/dose",110 ng/mL
same,Cmax at 1 day,"[3]; plasma, oral, 100 mg",16.7 ng/mL
same,Cmax at 14 day,"[3]; plasma, oral, 100 mg",21.3 ng/mL
same,AUC(0-inf),"[3]; plasma, oral, 100 mg/dose",54.1 ng·h/mL
same,AUC(0-t),"[3]; plasma, oral, 100 mg/dose",50.8 ng·h/mL
same,Cmax,"[3]; plasma, oral, 100 mg/dose",15.8 ng/mL
same,Tmax,"[3]; plasma, oral, 100 mg/dose",1 h
same,Vd/F,"[3]; plasma, oral, 100 mg/dose",4620 L
same,half-life,"[3]; plasma, oral, 100 mg/dose",1.73 h
same,AUC(0-inf),"[3]; plasma, oral, 400 mg",305 ng·h/mL
same,Tmax,"[3]; plasma, oral, 400 mg",2 h
same,AUC(0-inf),"[3]; plasma, oral, 400 mg/dose",482 ng·h/mL
same,Cmax,"[3]; plasma, oral, 400 mg/dose",89 ng/mL
same,concentration at 12 h,"[3]; plasma, oral, 400 mg/dose",11.4 ng/mL
same,half-life,"[3]; plasma, oral, 400 mg/dose",6.45 h
